Drawing on PubChem BioAssay (NCI), this text covers GI50 and TGI for seven molecules.

Each structure is given as a SMILES string.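 Compound exposure: 48 hours, 5 concentrations, 96-well plates. The concentration for 50% growth inhibition is given as GI50. The concentration for full growth arrest is given as TGI.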

Test in all cases: NCI-60 cell line screen, 48 h
Experiment [1] relates to IGROV1 ovarian.
Experiment [2] relates to PC-3 prostate.
For experiment [3], the system named is SF-539 CNS.
The subject of experiment [4] is UACC-62 melanoma.
Experiment [5] has as its system EKVX NSCLC.
The test system of experiment [6] is M14 melanoma.
In experiment [7] the test system is CCRF-CEM leukemia.
The subject of experiment [8] is OVCAR-5 ovarian.
The test system of experiment [9] is MOLT-4 leukemia.
In experiment [10] the test system is SK-MEL-28 melanoma.

As for `CCN1C(=O)N(CC)C2C1NN=c1s/c(=C\c3ccc(OC)cc3)c(=O)n12` (stereo not given), the GI50 in experiment [1] was 0.295 µM; in experiment [2] it was 0.14 µM; in experiment [3], 0.103 µM; in experiment [4], 0.0704 µM; in experiment [5], 0.44 µM; in [6], 0.172 µM. Also, the GI50 is 0.304 µM in experiment [7], 0.474 µM in experiment [8], 0.378 µM in [9] and 0.953 µM in [10]. Moreover, the TGI is over 100 µM in experiment [1]; over 100 µM in experiment [2]; 0.545 µM in experiment [3]; over 100 µM in experiment [4]; over 100 µM in [5]; over 100 µM in experiment [6]. Also, the TGI in experiment [7], in experiment [8], in experiment [9] and in experiment [10] was over 100 µM each time.

On to `CCCc1n(Cc2ccc3ccccc3n2)cc[n+]1Cc1ccc2ccccc2n1`, for which the GI50 in [1] is 1.48 µM; in experiment [2] it was 1.85 µM; in [3], 2.14 µM; in experiment [4] it was 1.12 µM; in experiment [5], 5.67 µM; in experiment [6], 2.29 µM. For the same molecule, the GI50 in experiment [7] was 2.72 µM; in [8] it was 3.72 µM; in [9], 2.89 µM; in [10], 1.52 µM. In addition, the TGI in experiment [1] was 15.1 µM; in [2], 14.7 µM; in experiment [3], 13.4 µM; in experiment [4], 6.19 µM; in [5], over 79.6 µM; in experiment [6], 13.5 µM. The TGI in [7] is 28.3 µM; in [8], 34.2 µM; in experiment [9], 16.5 µM; in [10], 15.8 µM.

Regarding `Cc1cc(C#Cc2ccccc2)ccc1-n1c(/C=C/c2cc(O)ccc2O)nc2ccccc2c1=O`, the GI50 in [1] is 2.45 µM; in experiment [2], 2.19 µM; in experiment [3] it was 1.6 µM; in experiment [4], 1.52 µM; in [5] it was 1.24 µM; in experiment [6], 1.54 µM. Moreover, the GI50 in experiment [7] is 1.54 µM; in experiment [8] it was 1.39 µM; in experiment [9], 1.14 µM; in experiment [10] it was 1.53 µM. For the same molecule, the TGI in experiment [1] came to 8 µM; in experiment [2], 8.34 µM; in experiment [3], 3.44 µM; in [4] it was 2.86 µM; in [5], 5.41 µM; in experiment [6], 2.91 µM. Also, the TGI worked out at 7.13 µM in experiment [7], 2.7 µM in [8], 3.97 µM in experiment [9] and 2.87 µM in [10].

For the molecule `COc1cc(-c2nn(-c3cccc(NC(=O)CCN4CCN(C)CC4)c3)cc2-c2ccncc2)ccc1Cl`, the GI50 is 2.37 µM in experiment [1]; 0.995 µM in [2]; 1.55 µM in experiment [3]; 1.04 µM in experiment [4]; 2.13 µM in [5]; 1.09 µM in experiment [6]. Also, the GI50 in [7] is 1.98 µM; in experiment [8], 2.06 µM; in [9] it was 1.44 µM; in experiment [10], 1.48 µM. For the same molecule, the TGI in experiment [1] came out at 15.6 µM; in [2], 3.68 µM; in experiment [3], 3.06 µM; in [4] it was 2.66 µM; in experiment [5], 12.6 µM; in experiment [6], 2.71 µM. In addition, the TGI was 6.85 µM in experiment [7], 5.82 µM in experiment [8], 4.89 µM in experiment [9] and 2.99 µM in experiment [10].

Take `COc1ccc2c(c1)C(=O)c1c-2c(N2CCN(C(=O)CCNCCNCCO)CC2)nc2ccccc12`: the GI50 is 12.7 µM in experiment [1]; 13.2 µM in experiment [2]; 14.5 µM in experiment [3]; 21.3 µM in [4]; 14.5 µM in experiment [5]; 11.8 µM in experiment [6]. The GI50 in experiment [7] was 5.32 µM; in experiment [8], 18.3 µM; in experiment [9] it was 5.05 µM; in [10] it was 9.22 µM. In addition, the TGI was found to be 45.2 µM in experiment [1]; 27.9 µM in [2]; 29.9 µM in experiment [3]; 38.2 µM in [4]; 30.1 µM in experiment [5]; 24.1 µM in [6]. The TGI was found to be 23.7 µM in [7], 34.4 µM in experiment [8], 22.9 µM in experiment [9] and 23.4 µM in experiment [10].

For the molecule `CC(=O)C(C=O)C(C)=O.CC(=O)CC(C)=O.CC(=O)CC(C)=O.[Ru]`, the GI50 in experiment [1] is 20.4 µM; in [2], 13.2 µM; in experiment [3] it was 3.8 µM; in experiment [4], 0.589 µM; in experiment [5] it was 18.1 µM; in experiment [6] it was 49.4 µM. The GI50 is 5.62 µM in [7], 32.2 µM in [8], 28.6 µM in [9] and 48.8 µM in [10]. The TGI is 73.3 µM in experiment [1]; 71.2 µM in [2]; 26.3 µM in experiment [3]; 19.1 µM in [4]; 95.9 µM in experiment [5]; over 100 µM in experiment [6]. The TGI was 21.8 µM in experiment [7], over 100 µM in [8], over 100 µM in [9] and over 100 µM in experiment [10].

Take `COc1ccc2nc3cc(Cl)ccc3c(Nc3cc(C(C)C)c(O)cc3C)c2c1`: the GI50 was 1.55 µM in [1]; 1.7 µM in [2]; 1.81 µM in experiment [3]; 1.72 µM in [4]; 2.22 µM in experiment [5]; 1.74 µM in [6]. Moreover, the GI50 was 2.08 µM in [7], 3.03 µM in experiment [8], 1.38 µM in [9] and 1.91 µM in experiment [10]. Further, the TGI stood at 3.35 µM in [1]; 4.79 µM in experiment [2]; 3.61 µM in experiment [3]; 3.5 µM in [4]; 7.75 µM in experiment [5]; 3.31 µM in experiment [6]. Further, the TGI stood at 6.63 µM in [7], 9.48 µM in experiment [8], 4.36 µM in experiment [9] and 4.05 µM in [10].
